Assay [1] concerns the target T1, F508delCFTR cell surface expression in CFBE41o-F508delCFTR-HRP cells (Homo sapiens, UniProt P13569, DEL508-508).
T1 construct: fused on or other part: Horseradish peroxidase (HRP) reporter inserted in the fourth exofacial (extracellular) loop of CFTR; expression is doxycycline-inducible
Description: Cell Surface Expression-Horse Radish Peroxidase (CSE-HRP) Assay. It is filed as cell-based. The note with it: for EC50: CFBE41o-F508delCFTR-HRP cells, 18-24 hours at 33° C., 8-point curve, highest concentration 20 μM; for Maximum % activity (%): maximum at any tested concentration, normalized to on-plate positive control (3 μM). In a few lines:
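Correctors incubated 18-24 h at 33 °C on doxycycline-induced (0.5 μg/mL, 72 h) CFBE41o-F508delCFTR-HRP cells, 3-fold series from 20 μM. After DPBS washes, luminol luminescence read; activity expressed relative to DMSO and a 3 μM positive control, EC50 fitted from triplicate plates.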

For assay [2], the target named is T2, F508delCFTR in primary hBE cells with F508del/F508del CFTR mutation (Homo sapiens, UniProt P13569, DEL508-508).
T2 construct: cells isolated from CF patients with the homozygous mutation; endogenous in cells; host or cells: primary human bronchial epithelial (hBE) cells from F508del/F508del CF patients
T2 sequence (P13569 with tags, fused parts or gaps DEL508-508): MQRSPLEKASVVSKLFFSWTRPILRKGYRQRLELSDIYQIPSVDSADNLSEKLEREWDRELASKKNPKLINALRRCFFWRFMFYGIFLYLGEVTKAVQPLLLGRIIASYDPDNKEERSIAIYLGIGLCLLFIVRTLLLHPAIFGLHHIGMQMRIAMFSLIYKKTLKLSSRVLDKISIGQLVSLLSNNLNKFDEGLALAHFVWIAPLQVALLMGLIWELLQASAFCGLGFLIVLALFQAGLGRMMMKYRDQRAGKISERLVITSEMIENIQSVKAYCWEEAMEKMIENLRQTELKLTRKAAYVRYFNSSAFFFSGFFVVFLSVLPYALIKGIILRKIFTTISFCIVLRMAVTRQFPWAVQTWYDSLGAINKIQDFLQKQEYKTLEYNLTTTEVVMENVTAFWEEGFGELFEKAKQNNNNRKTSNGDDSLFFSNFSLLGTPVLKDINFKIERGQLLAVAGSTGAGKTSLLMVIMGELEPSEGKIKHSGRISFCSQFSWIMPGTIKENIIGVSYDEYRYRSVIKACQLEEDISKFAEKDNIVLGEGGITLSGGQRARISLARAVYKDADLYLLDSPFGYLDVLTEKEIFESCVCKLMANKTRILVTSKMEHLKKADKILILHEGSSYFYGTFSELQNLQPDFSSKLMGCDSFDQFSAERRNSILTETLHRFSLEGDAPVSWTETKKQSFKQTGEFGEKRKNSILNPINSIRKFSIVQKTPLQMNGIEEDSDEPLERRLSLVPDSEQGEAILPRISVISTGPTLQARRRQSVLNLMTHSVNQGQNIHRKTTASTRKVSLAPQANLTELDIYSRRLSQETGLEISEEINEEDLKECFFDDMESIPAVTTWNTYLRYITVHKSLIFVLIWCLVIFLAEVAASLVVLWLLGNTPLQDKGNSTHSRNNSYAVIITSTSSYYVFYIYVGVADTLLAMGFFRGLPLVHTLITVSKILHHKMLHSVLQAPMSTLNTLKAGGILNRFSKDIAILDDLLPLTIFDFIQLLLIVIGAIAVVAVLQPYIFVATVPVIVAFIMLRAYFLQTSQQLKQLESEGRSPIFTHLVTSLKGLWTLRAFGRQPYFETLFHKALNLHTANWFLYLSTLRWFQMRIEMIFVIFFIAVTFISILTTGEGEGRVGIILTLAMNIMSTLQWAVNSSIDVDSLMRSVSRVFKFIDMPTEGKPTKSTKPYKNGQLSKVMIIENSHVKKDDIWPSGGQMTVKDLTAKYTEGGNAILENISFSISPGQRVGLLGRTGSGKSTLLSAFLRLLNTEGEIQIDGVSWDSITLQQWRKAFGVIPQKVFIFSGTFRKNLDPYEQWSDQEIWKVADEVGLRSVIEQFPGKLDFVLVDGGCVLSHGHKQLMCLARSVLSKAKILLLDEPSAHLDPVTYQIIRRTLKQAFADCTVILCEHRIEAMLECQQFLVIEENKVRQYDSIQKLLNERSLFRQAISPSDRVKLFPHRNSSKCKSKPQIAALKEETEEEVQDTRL
Put plainly: Transepithelial Clamp Circuit on Human Bronchial Epithelial Cells Conductance Assay (hBE-TECC). It is filed as cell-based. The note with it: for EC50: primary hBE cells F508del/F508del, 18-24 hours at 37° C., equivalent short circuit current, 6 concentrations. The text has this: Transepithelial Clamp Circuit on Human Bronchial Epithelial Cells Conductance Assay:
A cell based assay using the primary human bronchial epithelial cells (hBE) was used as a secondary assay to test novel F508delCFTR correctors for their activity on primary hBE cells with F508del/F508del CFTR mutation. The assay used a TECC-24 (Transepithelial Clamp Circuit for 24 wells) instrument that measures the functionality of the mutated channel by measuring the equivalent short circuit current (Ieq) generated by the polarized epithelial cells. The instrument works by measuring the transepithelial potential difference (Vt) and transepithelial resistance (Rt) in an open circuit format, and the Ieq is calculated by using Ohms law (Ieq=Vt/Rt). The assay was run in a 24-well format and all 24-wells were measured at the same time point giving a higher throughput for this assay.
Primary human bronchial epithelial (hBE) cells from F508del/F508delCFTR patients were expanded from 1×10^6 to 250×10^6 cells (Neuberger T, Burton B, Clark H and VanGoor F; Cystic Fibrosis, Methods in Mole Biol 741; eds. Amaral M D and Kunzelmann K, 2011). For this purpose, cells isolated from CF patients with the homozygous mutation were seeded onto 24 well Corning (Cat #3378) filter plates that were coated with 3T3 conditioned media and grown at an air-liquid interface for 35 days using an Ultroser® G supplemented differentiation media. Apical surface mucus was removed 72 hours before the experiment using 3 mM dithiothreitol (DTT) in phosphate buffered saline (PBS). The apical surface was washed again 24 hours before the experiment using PBS. The cells were incubated with the desired dose response of the corrector compounds 18-24 hours at 37° C., 5% CO2. The corrector compounds are only added on the basolateral side of the epithelial cells.
On the day of measuring the corrector activity on the TECC, the cells were switched into a bicarbonate and serum free F-12 Coon's medium and allowed to equilibrate for 90 minutes in a CO2 free incubator. At the time of measurement, the apical and basolateral sides of the filter were bathed with the F-12 Coon's modification media (with 20 mM 4-(2-hydroxyethyl)-1-piperazineethanesulfonic acid (HEPES), pH 7.4 (using 1 M tris(hydroxymethyl)aminomethane (Tris)), and the measurements were made at 36.5° C. Transepithelial voltage (Vt) and transepithelial resistance (Rt) were measured using a 24 channel transepithelial current clamp (TECC-24). Current responses to the sequential addition of benzamil (apical 6 μM addition; for inhibiting epithelial ENaC channel), forskolin (apical and basolateral 10 μM addition; for activating the CFTR channel), control potentiator (N-(3-carbamoyl-5,5,7,7-tetramethyl-4,7-dihydro-5H-thieno[2,3-c]pyran-2-yl)-1H-pyrazole-5-carboxamide; apical and basolateral […] addition; for potentiating the CFTR channel) and bumetanide (basolateral 20 μM addition; for inhibiting the Na:2Cl:K co-transporter, an indirect measure of inhibiting the Cl-secretion driven by CFTR channel) were measured.
All plates contained negative controls (dimethyl sulfoxide, DMSO) which coupled with the control potentiator (N-(3-carbamoyl-5,5,7,7-tetramethyl-4,7-dihydro-5H-thieno[2,3-c]pyran-2-yl)-1H-pyrazole-5-carboxamide) sets the null response and positive controls (3 μM of 3-[(2R,4R)-4-({[1-(2,2-difluoro-1,3-benzodioxol-5-yl)cyclopropyl]carbonyl}amino)-7-methoxy-3,4-dihydro-2H-chromen-2-yl]benzoic acid) coupled with the control potentiator sets the 100% response to measure the correction of the mutated CFTR channel. The maximum percent activity is reported relative to the positive control value.
The % activity measured at each of the 6 test concentrations of the test compound was normalized to the on-plate positive control using the following formula: % activity=[[…]]*100 […]

The mark [3] stands for this setting: relative to positive control (3 μM) coupled with control potentiator.

T1 sequence (P13569 with tags, fused parts or gaps DEL508-508 limits assumed): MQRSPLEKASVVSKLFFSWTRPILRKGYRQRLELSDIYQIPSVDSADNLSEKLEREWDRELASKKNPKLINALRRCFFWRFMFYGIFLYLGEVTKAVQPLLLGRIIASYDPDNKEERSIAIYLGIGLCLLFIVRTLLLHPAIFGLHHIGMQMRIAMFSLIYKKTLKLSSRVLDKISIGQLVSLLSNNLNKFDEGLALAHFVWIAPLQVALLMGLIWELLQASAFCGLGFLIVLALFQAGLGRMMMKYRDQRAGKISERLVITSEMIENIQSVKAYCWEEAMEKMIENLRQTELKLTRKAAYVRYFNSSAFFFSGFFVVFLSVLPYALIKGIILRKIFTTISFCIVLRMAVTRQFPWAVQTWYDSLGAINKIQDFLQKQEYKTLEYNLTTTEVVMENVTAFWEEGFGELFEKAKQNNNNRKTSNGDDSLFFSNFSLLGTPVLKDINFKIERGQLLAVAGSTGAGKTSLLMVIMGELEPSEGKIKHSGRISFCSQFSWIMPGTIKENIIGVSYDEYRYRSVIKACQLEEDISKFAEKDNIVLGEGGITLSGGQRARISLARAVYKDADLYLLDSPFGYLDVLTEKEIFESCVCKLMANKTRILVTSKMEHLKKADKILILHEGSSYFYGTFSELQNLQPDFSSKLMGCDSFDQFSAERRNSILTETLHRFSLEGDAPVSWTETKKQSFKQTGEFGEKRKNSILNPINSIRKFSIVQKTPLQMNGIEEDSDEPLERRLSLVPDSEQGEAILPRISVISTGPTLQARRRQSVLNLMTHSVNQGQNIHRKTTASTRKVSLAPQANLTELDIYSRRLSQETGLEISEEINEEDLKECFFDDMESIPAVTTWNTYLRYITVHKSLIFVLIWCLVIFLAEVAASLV
T1 sequence (P13569 919-1480 limits assumed, stated change not applied): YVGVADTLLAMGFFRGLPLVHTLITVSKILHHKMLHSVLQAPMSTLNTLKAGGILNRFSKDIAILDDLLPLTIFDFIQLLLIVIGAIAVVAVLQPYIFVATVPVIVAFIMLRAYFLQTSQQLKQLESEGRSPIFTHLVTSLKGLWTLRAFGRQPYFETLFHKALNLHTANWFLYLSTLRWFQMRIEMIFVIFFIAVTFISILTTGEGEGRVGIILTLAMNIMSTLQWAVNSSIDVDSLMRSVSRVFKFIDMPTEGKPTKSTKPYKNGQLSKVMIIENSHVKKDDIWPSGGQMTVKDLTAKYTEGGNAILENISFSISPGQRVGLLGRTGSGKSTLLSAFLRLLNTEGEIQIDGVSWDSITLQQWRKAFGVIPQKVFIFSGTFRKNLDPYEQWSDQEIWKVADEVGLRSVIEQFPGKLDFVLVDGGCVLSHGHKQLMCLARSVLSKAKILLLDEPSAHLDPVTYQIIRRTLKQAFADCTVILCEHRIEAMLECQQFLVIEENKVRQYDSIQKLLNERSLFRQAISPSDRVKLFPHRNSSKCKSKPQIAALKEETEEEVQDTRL

For orientation: EC50 means the concentration needed to bring the measured effect to its halfway point. Consider `C[C@]1(C(=O)N[C@H]2C[C@@H](c3ccccc3)O[C@@H](c3ccc(C(=O)O)cc3)C2)COc2cc3c(cc21)OC(F)(F)O3` (single isomer, unassigned) [Example 44], for which the EC50 in assay [1] turned out to be 930 nM; in assay [2] it was 246 nM. Further, the results for the “Maximum % activity (%)” value in assay [1] and in assay [2] (setting [3]) were 114% and 83%, respectively.

On to `COc1ccc2c(c1)O[C@@H](c1cnc([C@H](O)CO)cn1)C[C@H]2NC(=O)[C@@]1(C)COc2cc3c(cc21)OC(F)(F)O3` (single isomer, unassigned) [Example 192], for which the values for the 50% effective concentration (EC50) in assay [1] and in assay [2] were 90 nM and 6 nM, respectively. The “Maximum % activity (%)” value in assay [1] turned out to be 126%; in assay [2] (setting [3]), 103%.

For `Cc1ccc(NC(=O)C2(C)COc3cc4c(cc32)OC(F)(F)O4)nc1-c1cccc(C(=O)O)c1` (stereo not drawn) [Example 2, 3-{6-[(2,2-difluoro-7-methyl-6,7-dihydro-2H-furo[2,3-f][1,3]benzodioxole-7-carbonyl)amino]-3-methylpyridin-2-yl}benzoic acid], the values for the EC50 in assay [1] and in assay [2] were 300 nM and 242 nM, respectively. The “Maximum % activity (%)” value is 159% in assay [1] and 99% in assay [2] (setting [3]).

As to `Cc1ccc(NC(=O)[C@@]2(C)COc3cc4c(cc32)OC(F)(F)O4)nc1-c1cccc(C(=O)O)c1` [Example 6, 3-(6-{[(7R)-2,2-difluoro-7-methyl-6,7-dihydro-2H-furo[2,3-f][1,3]benzodioxole-7-carbonyl]amino}-3-methylpyridin-2-yl)benzoic acid], the EC50 turned out to be 290 nM in assay [1] and 199 nM in assay [2]. Also, the “Maximum % activity (%)” value in assay [1] stood at 157%; in assay [2] (setting [3]) it was 103%.

On to `COc1ccc2c(c1)O[C@@H](c1cccc(C(=O)O)c1)C[C@H]2NC(=O)C1(C)COc2cc3c(cc21)OC(F)(F)O3` (stereo partly drawn) [Example 11, 3-{(2R,4R)-4-[(2,2-difluoro-7-methyl-6,7-dihydro-2H-furo[2,3-f][1,3]benzodioxole-7-carbonyl)amino]-7-methoxy-3,4-dihydro-2H-1-benzopyran-2-yl}benzoic acid], for which, in assay [1], the EC50 worked out at 510 nM and the “Maximum % activity (%)” value is given as 166%. Also, the “Maximum % activity (%)” value in assay [2] (testing concentration 1 μM) came to 91%.

On to `COc1ccc2c(c1)O[C@@H](c1ccc(C(=O)O)cc1)C[C@H]2NC(=O)[C@@]1(C)COc2cc3c(cc21)OC(F)(F)O3` [Example 20, 4-[(2R,4R)-4-{[(7R)-2,2-difluoro-7-methyl-6,7-dihydro-2H-furo[2,3-f][1,3]benzodioxole-7-carbonyl]amino}-7-methoxy-3,4-dihydro-2H-1-benzopyran-2-yl]benzoic acid], for which the results for the EC50 in assay [1] and in assay [2] were 30 nM and 11 nM, respectively. Moreover, the figures for the “Maximum % activity (%)” value in assay [1] and in assay [2] (setting [3]) were 150% and 98%, respectively.

As for `CC1(C(=O)N[C@@H]2C[C@H](c3cccc(C(=O)O)c3)Oc3ccccc32)COc2cc3c(cc21)OC(F)(F)O3` (stereo partly drawn) [Example 21, 3-{(2R,4R)-4-[(2,2-difluoro-7-methyl-6,7-dihydro-2H-furo[2,3-f][1,3]benzodioxole-7-carbonyl)amino]-3,4-dihydro-2H-1-benzopyran-2-yl}benzoic acid], the EC50 in assay [1] is 1260 nM; in assay [2], 468 nM. Moreover, the “Maximum % activity (%)” value in assay [1] amounted to 162%; in assay [2] (setting [3]), 94%.

For the compound `CC1(C(=O)Nc2cc(-c3ccccc3)nn(C[C@@H](O)CO)c2=O)COc2cc3c(cc21)OC(F)(F)O3` (stereo partly drawn) [Example 25, N-{2-[(2R)-2,3-dihydroxypropyl]-3-oxo-6-phenyl-2,3-dihydropyridazin-4-yl}-2,2-difluoro-7-methyl-6,7-dihydro-2H-furo[2,3-f][1,3]benzodioxole-7-carboxamide], in assay [1], the half-maximal effective concentration (EC50) was 1160 nM and the “Maximum % activity (%)” value is 82%. In addition, the “Maximum % activity (%)” value in assay [2] (testing concentration 10 μM) is given as 61%.

In assay [1], `C[C@]1(C(=O)Nc2cc(-c3ccccc3)nn(C[C@@H](O)CO)c2=O)COc2cc3c(cc21)OC(F)(F)O3` [Example 27, (7R)—N-{2-[(2R)-2,3-dihydroxypropyl]-3-oxo-6-phenyl-2,3-dihydropyridazin-4-yl}-2,2-difluoro-7-methyl-6,7-dihydro-2H-furo[2,3-f][1,3]benzodioxole-7-carboxamide] came in with an EC50 of 810 nM. Besides, the figures for the “Maximum % activity (%)” value in assay [1] and in assay [2] (testing concentration 3 μM) were 82% and 54%, respectively.

On to `CC1(C(=O)Nc2cc(C3CC3)nn(-c3ccc(C(=O)O)cc3)c2=O)COc2cc3c(cc21)OC(F)(F)O3` (stereo not drawn) [Example 30, 4-{3-cyclopropyl-5-[(2,2-difluoro-7-methyl-6,7-dihydro-2H-furo[2,3-f][1,3]benzodioxole-7-carbonyl)amino]-6-oxopyridazin-1(614)-yl}benzoic acid], for which, in assay [1], the 50% effective concentration (EC50) stood at 980 nM and the “Maximum % activity (%)” value is 122%. In addition, the “Maximum % activity (%)” value in assay [2] (testing concentration 10 μM) is recorded as 47%.

As to `C[C@]1(C(=O)Nc2cc(C3CC3)nn(-c3ccc(C(=O)O)cc3)c2=O)COc2cc3c(cc21)OC(F)(F)O3` [Example 32, 4-[3-cyclopropyl-5-{[(7R)-2,2-difluoro-7-methyl-6,7-dihydro-2H-furo[2,3-f][1,3]benzodioxole-7-carbonyl]amino}-6-oxopyridazin-1(6H)-yl]benzoic acid], in assay [1], a half-maximal response (EC50) required 880 nM. Besides, the “Maximum % activity (%)” value is given as 144% in assay [1] and 51% in assay [2] (testing concentration 3 μM).

Turning to `CC1(C(=O)N[C@@H]2C[C@H](c3cccc(C(=O)O)c3)Oc3ccccc32)CCc2cc3c(cc21)OC(F)(F)O3` (stereo partly drawn) [Example 35, 3-{(2R,4R)-4-[(2,2-difluoro-5-methyl-6,7-dihydro-2H,5H-indeno[5,6-d][1,3]dioxole-5-carbonyl)amino]-3,4-dihydro-2H-1-benzopyran-2-yl}benzoic acid], in assay [1], the concentration for a half-maximal effect (EC50) turned out to be 940 nM and the “Maximum % activity (%)” value is listed as 76%. Moreover, the “Maximum % activity (%)” value in assay [2] (testing concentration 3 μM) is given as 80%.

Regarding `Cc1ccc(NC(=O)C2(C)CCc3c2ccc2c3OCO2)cc1-c1cccc(C(=O)O)c1` (stereo not drawn) [Example 36, 2′-methyl-5′-[(6-methyl-7,8-dihydro-2H,6H-indeno[4,5-d][1,3]dioxole-6-carbonyl)amino][1,1′-biphenyl]-3-carboxylic acid], in assay [1], the concentration for a half-maximal effect (EC50) is 1240 nM and the “Maximum % activity (%)” value came out at 79%. For the same compound, in assay [2] (testing concentration 10 μM), the “Maximum % activity (%)” value came out at 77%.

For the compound `COc1ccc2c(c1)O[C@@H](c1ccc(C(=O)O)cc1)C[C@H]2NC(=O)C1(C)COc2c1ccc1c2OC(F)(F)O1` (stereo partly drawn) [Example 39, 4-{(2R,4R)-4-[(2,2-difluoro-6-methyl-6,7-dihydro-2H-furo[2,3-e][1,3]benzodioxole-6-carbonyl)amino]-7-methoxy-3,4-dihydro-2H-1-benzopyran-2-yl}benzoic acid], in assay [1], the concentration giving a half-maximal response (EC50) was determined as 1260 nM and the “Maximum % activity (%)” value is given as 106%. The “Maximum % activity (%)” value in assay [2] (testing concentration 3 μM) was determined as 47%.

These data come from patent US9840513B2 (AbbVie S.à.r.l., priority 2015, dated 2017).
